These results are taken from US6603044B1, “Phthalamide derivatives, or salt thereof agrohorticultural insecticide, and method for using the same” (Nihon Nohyaku Co., Ltd., priority 1998, dated 2003).

Series [1] deals with Diamond Back Moth (Plutella xylostella). Nature of the series: Insecticidal effect on diamond back moth (Test Example 1). Type of series: in vivo. The following applies: 50 ppm; Chinese cabbage seedling with deposited eggs immersed about 30 seconds; 25° C.; six days after the immersion. Summed up: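 Mortality was scored six days after treatment by counting hatched insects, in three groups of 10. Treatment meant immersing egg-bearing cabbage seedlings (two days post-oviposition) for about 30 seconds in 50 ppm compound preparation, then drying and holding at 25° C.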

Series [2] deals with Common Cutworm (Spodoptera Litura). Briefly: Insecticidal effect on common cutworm (Test Example 2). Type of series: in vivo. The following applies: 50 ppm; cabbage leaf immersed about 30 seconds; second-instar larvae; 25° C.; eight days after the inoculation. From the text:
Insecticidal Effect on Common Cutworm (Spodoptera Litura)
A piece of cabbage leaf (cultivar; Shikidori) was immersed for about 30 seconds in a liquid chemical prepared by diluting a preparation containing each compound listed in Table 1, 2 or 3 as an active ingredient to adjust the concentration to 50 ppm. After air-dryness, it was placed in a plastic Petri dish with a diameter of 9 cm and inoculated with second-instar larvae of common cutworm, after which the dish was closed and then allowed to stand in a room thermostatted at 25° C. Eight days after the inoculation, the dead and alive were counted. The mortality was calculated according to the following equation and the insecticidal effect was judged according to the criterion shown in Test Example 1. The test was carried out with triplicate groups of 10 insects. [formula]

Turning to `Cc1cc(C(F)(F)C(F)(F)F)ccc1NC(=O)c1cccc(I)c1C(=O)N1CCSC1` [3-1], the “Test Example 1 insecticidal effect (mortality)” value in series [1] was “A (100)”. For the same compound, the “Test Example 2 insecticidal effect (mortality)” value in series [2] is listed as “A (100)”.

In the case of `CSCC(C)NC(=O)c1c(C(=O)Nc2ccc(C(F)(C(F)(F)F)C(F)(F)F)cc2C)cccc1S(C)(=O)=O` (stereo not drawn) [Compound No. 191, N^1-(4-Heptafluoroisopropyl-2-methylphenyl)-N^2-(1-methyl-2-methylthioethyl)-3-methylsulfonylphthalamide], the “Test Example 1 insecticidal effect (mortality)” value in series [1] is recorded as “A (100)”. The “Test Example 2 insecticidal effect (mortality)” value in series [2] is recorded as “A (100)”.

Turning to `Cc1cc(OC(F)(F)F)ccc1NC(=O)c1cccc(I)c1C(=O)NC(C)CSC(C)C` (stereo not drawn) [compound 5], in series [1], the “Test Example 1 insecticidal effect (mortality)” value is reported as “A (100)”. Further, the “Test Example 2 insecticidal effect (mortality)” value in series [2] is recorded as “A (100)”.

In the case of `Cc1cc(OC(F)(F)F)ccc1NC(=O)c1cccc(I)c1C(=O)NC(C)CSc1ccccn1` (stereo not drawn) [compound 74], in series [1], the “Test Example 1 insecticidal effect (mortality)” value is reported as “A (100)”. For the same compound, the “Test Example 2 insecticidal effect (mortality)” value in series [2] is given as “D (79-50)”.

`Cc1cc(OC(F)(F)F)ccc1NC(=O)c1cccc(Br)c1C(=O)NC(C)C[S+](C)[O-]` (stereo not drawn) [compound 87]: the “Test Example 1 insecticidal effect (mortality)” value in series [1] is given as “A (100)”. Further, in series [2], the “Test Example 2 insecticidal effect (mortality)” value is given as “C (89-80)”.

For `Cc1cc(OC(F)(F)F)ccc1NC(=O)c1cccc(Br)c1C(=O)NC(C)CS(C)(=O)=O` (stereo not drawn) [compound 88], in series [1], the “Test Example 1 insecticidal effect (mortality)” value is recorded as “A (100)”. The “Test Example 2 insecticidal effect (mortality)” value in series [2] is reported as “C (89-80)”.

With `CC(CS(C)(=O)=O)NC(=O)c1c(I)cccc1C(=O)Nc1cc2c(cc1Cl)OC(F)C(F)(F)O2` (stereo not drawn) [compound 102], the “Test Example 1 insecticidal effect (mortality)” value in series [1] was “A (100)”. Besides, the “Test Example 2 insecticidal effect (mortality)” value in series [2] was “A (100)”.

Consider `CSCC(C)NC(=O)c1cc(I)ccc1C(=O)Nc1ccc(C(F)(F)C(F)(F)F)cc1C` (stereo not drawn) [compound 108], for which, in series [1], the “Test Example 1 insecticidal effect (mortality)” value is listed as “A (100)”. Further, in series [2], the “Test Example 2 insecticidal effect (mortality)” value is reported as “A (100)”.

As for `CSCC(C)NC(=O)c1cccc(Cl)c1C(=O)Nc1ccc(C(F)(F)C(F)(F)F)cc1C` (stereo not drawn) [compound 115], the “Test Example 1 insecticidal effect (mortality)” value in series [1] is recorded as “A (100)”. Besides, the “Test Example 2 insecticidal effect (mortality)” value in series [2] is on record as “A (100)”.

On to `Cc1cc(C(F)(F)C(F)(F)F)ccc1NC(=O)c1cccc(I)c1C(=O)NC(C)CCC[S+](C)[O-]` (stereo not drawn) [compound 133], for which, in series [1], the “Test Example 1 insecticidal effect (mortality)” value was “A (100)”. Also, the “Test Example 2 insecticidal effect (mortality)” value in series [2] is “A (100)”.

As for `Cc1cc(OC(F)(F)F)ccc1NC(=O)c1cccc(I)c1C(=O)NC(C)CS(=O)(=O)C(C)(C)C` (stereo not drawn) [compound 139], the “Test Example 1 insecticidal effect (mortality)” value in series [1] is recorded as “A (100)”. The “Test Example 2 insecticidal effect (mortality)” value in series [2] is “A (100)”.

As to `Cc1cc(OC(F)(F)F)ccc1NC(=O)c1cccc(I)c1C(=O)NC(C)(C)C[S+](C)[O-]` (stereo not drawn) [compound 141], the “Test Example 1 insecticidal effect (mortality)” value in series [1] was “A (100)”. The “Test Example 2 insecticidal effect (mortality)” value in series [2] is on record as “A (100)”.

Consider `Cc1cc(OC(F)(F)F)ccc1NC(=O)c1cccc(Cl)c1C(=O)NC(C)C[S+](C)[O-]` (stereo not drawn) [compound 143], for which the “Test Example 1 insecticidal effect (mortality)” value in series [1] is “A (100)”. Moreover, in series [2], the “Test Example 2 insecticidal effect (mortality)” value is given as “D (79-50)”.

For `Cc1cc(C(F)(F)C(F)(F)F)ccc1NC(=O)c1cccc(Cl)c1C(=O)NC(C)C[S+](C)[O-]` (stereo not drawn) [compound 144], in series [1], the “Test Example 1 insecticidal effect (mortality)” value was “A (100)”. The “Test Example 2 insecticidal effect (mortality)” value in series [2] is given as “A (100)”.

For the compound `CSCC(C)NC(=O)c1c(C(=O)Nc2ccc(C(F)(F)C(F)(F)F)cc2C)ccc(F)c1Cl` (stereo not drawn) [compound 148], the “Test Example 1 insecticidal effect (mortality)” value in series [1] is recorded as “A (100)”. Also, the “Test Example 2 insecticidal effect (mortality)” value in series [2] is listed as “C (89-80)”.

`CSCC(C)NC(=O)c1c(C(=O)Nc2ccc(C(F)(C(F)(F)F)C(F)(F)F)cc2C)ccc(F)c1Cl` (stereo not drawn) [compound 149]: in series [1], the “Test Example 1 insecticidal effect (mortality)” value is given as “A (100)”. Also, the “Test Example 2 insecticidal effect (mortality)” value in series [2] is given as “A (100)”.

For the compound `Cc1cc(OC(F)(F)F)ccc1NC(=O)c1ccc(Cl)c(Cl)c1C(=O)NC(C)C[S+](C)[O-]` (stereo not drawn) [compound 193], the “Test Example 1 insecticidal effect (mortality)” value in series [1] is “A (100)”. Moreover, in series [2], the “Test Example 2 insecticidal effect (mortality)” value was “D (79-50)”.

With `CSCC(C)(C)NC(=O)c1c(Br)cccc1C(=O)Nc1ccc(OC(F)(F)F)cc1Cl` [compound 227], the “Test Example 1 insecticidal effect (mortality)” value in series [1] is “A (100)”. The “Test Example 2 insecticidal effect (mortality)” value in series [2] is “A (100)”.

Take `CC(C)(CS(C)(=O)=O)NC(=O)c1c(Br)cccc1C(=O)Nc1ccc(OC(F)(F)F)cc1Cl` [compound 228]: the “Test Example 1 insecticidal effect (mortality)” value in series [1] was “A (100)”. In addition, the “Test Example 2 insecticidal effect (mortality)” value in series [2] is reported as “A (100)”.

Consider `C[S+]([O-])CC(C)(C)NC(=O)c1c(Br)cccc1C(=O)Nc1ccc(OC(F)(F)F)cc1Cl` (stereo not drawn) [compound 232], for which the “Test Example 1 insecticidal effect (mortality)” value in series [1] is given as “A (100)”. Moreover, in series [2], the “Test Example 2 insecticidal effect (mortality)” value is given as “A (100)”.

On to `CSCC(C)NC(=O)c1c(I)cccc1C(=O)Nc1ccc(OC(F)(F)F)cc1Cl` (stereo not drawn) [compound 233], for which the “Test Example 1 insecticidal effect (mortality)” value in series [1] is listed as “A (100)”. In addition, the “Test Example 2 insecticidal effect (mortality)” value in series [2] is “A (100)”.

`CCS(=O)(=O)CC(C)(C)NC(=O)c1c(I)cccc1C(=O)Nc1ccc(OC(F)(F)F)cc1C` [compound 250]: the “Test Example 1 insecticidal effect (mortality)” value in series [1] was “A (100)”. Also, the “Test Example 2 insecticidal effect (mortality)” value in series [2] was “A (100)”.

As to `CSCC(C)NC(=O)c1c(C(=O)Nc2ccc(OC(F)(F)F)cc2C)ccc2c1OC(F)(F)O2` (stereo not drawn) [compound 290], the “Test Example 1 insecticidal effect (mortality)” value in series [1] was “A (100)”. Moreover, the “Test Example 2 insecticidal effect (mortality)” value in series [2] is “D (79-50)”.

For the compound `Cc1cc(C(F)(F)F)ccc1NC(=O)c1cccc(Br)c1C(=O)NC(C)(C)C[S+](C)[O-]` (stereo not drawn) [compound 311], the “Test Example 1 insecticidal effect (mortality)” value in series [1] is recorded as “A (100)”. Further, the “Test Example 2 insecticidal effect (mortality)” value in series [2] is “A (100)”.

As for `CSCC(C)NC(=O)c1c(Br)cccc1C(=O)Nc1ccc(OC(F)(F)F)cc1Cl` (stereo not drawn) [compound 337], in series [1], the “Test Example 1 insecticidal effect (mortality)” value was “A (100)”. Moreover, the “Test Example 2 insecticidal effect (mortality)” value in series [2] is reported as “A (100)”.

As for `CC(C[S+](C)[O-])NC(=O)c1c(Br)cccc1C(=O)Nc1ccc(OC(F)(F)F)cc1Cl` (stereo not drawn) [compound 338], in series [1], the “Test Example 1 insecticidal effect (mortality)” value was “A (100)”. Further, in series [2], the “Test Example 2 insecticidal effect (mortality)” value is “A (100)”.

With `COCC[S+]([O-])CC(C)NC(=O)c1c(I)cccc1C(=O)Nc1ccc(C(F)(C(F)(F)F)C(F)(F)F)cc1C` (stereo not drawn) [compound 340], the “Test Example 1 insecticidal effect (mortality)” value in series [1] was “A (100)”. In addition, the “Test Example 2 insecticidal effect (mortality)” value in series [2] was “A (100)”.

On to `C[S+]([O-])CC(C)(C)NC(=O)c1c(Cl)cccc1C(=O)Nc1ccc(OC(F)(F)F)cc1Cl` (stereo not drawn) [compound 370], for which the “Test Example 1 insecticidal effect (mortality)” value in series [1] is given as “A (100)”. Further, the “Test Example 2 insecticidal effect (mortality)” value in series [2] is listed as “A (100)”.

`Cc1cc(C(F)(F)C(F)(F)F)ccc1NC(=O)c1cccc([N+](=O)[O-])c1C(=O)NC(C)(C)CS(C)(=O)=O` [compound 375]: the “Test Example 1 insecticidal effect (mortality)” value in series [1] is given as “A (100)”. Moreover, in series [2], the “Test Example 2 insecticidal effect (mortality)” value is “A (100)”.

Take `CC(C[S+](C)[O-])NC(=O)c1c(Cl)cccc1C(=O)Nc1ccc(OC(F)(F)F)cc1Cl` (stereo not drawn) [compound 381]: the “Test Example 1 insecticidal effect (mortality)” value in series [1] was “A (100)”. The “Test Example 2 insecticidal effect (mortality)” value in series [2] is on record as “A (100)”.
